Data taken from US20260048064A1, “AMORPHOUS SOLID DISPERSIONS COMPRISING NAPORAFENIB” (Novartis AG, priority 2022, published 2026).
Values after ≈ are worked out from the molar mass of the structure shown. Where a name gives a salt, the structure may show the parent alone.

Columns and labels:
Assay type in all cases: physicochemical
[1] = Solubility at various pH and in biorelevant media (Table 1B)
Text: Compound A has very limited solubility in all pHs.

[2] = Solubility at 25° C. in SGF, FaSSIF, FeSSIF (Table 1A)
Protocol: (§1) Several physical forms of Compound A were analyzed: the free base, tartrate salt, and tosylate salt.

[3] = Bulk stability at 80° C./75% RH, 1 week (Table 1A)
Protocol: as §1

[4] = Light stability, 1.2 MLux h (Table 1A)
Protocol: as §1

[5] = Hygroscopicity (Table 1A)
Protocol: as §1

Polymorphism (Table 1A) = test: Polymorphism (Table 1A)
Protocol: as §1

[6] = Stability in aqueous solutions (Table 1A)
Protocol: as §1

[7] = Photostability under light stress (Table 1C); conditions: RT, light dose 1.2 Lux·h*10^6
Text: The photostability of crystalline hydrate and crystalline tosylate forms of Compound A under photo, or light stress is provided in Table 1C.

[8] = Stability in solution/suspension at pH 1, 4.5, 7.4 under heat (Table 1E); conditions: 5 days
[9] = Bulk solid stability under thermal stress (Table 1D); conditions: 5 days

Cc1ccc(NC(=O)c2ccnc(C(F)(F)F)c2)cc1-c1cc(OCCO)nc(N2CCOCC2)c1 [Compound A (free base), N-(3-(2-(2-hydroxyethoxy)-6-morpholinopyridin-4-yl)-4-methylphenyl)-2-(trifluoromethyl)isonicotinamide]
Solubility ([1]; FaSSIF V2): 35 µg/mL (≈ 69.7 µM) | pH final of solubility test ([1]; FaSSIF V2): 6.51 | Solubility ([1]; FeSSIF V2): 576 µg/mL (≈ 1150 µM) | pH final of solubility test ([1]; FeSSIF V2): 5.82 | Solubility ([1]; SGF pH 2.0): 699 µg/mL (≈ 1390 µM) | pH final of solubility test ([1]; SGF pH 2.0): 1.86 | Solubility ([1]; Water): 2 µg/mL (≈ 3.98 µM) | pH final of solubility test ([1]; Water): 7.33 | Solubility ([1]; pH 1): 400 µg/mL (≈ 796 µM) | pH final of solubility test ([1]; pH 1): 1.07 | Solubility ([1]; pH 2): 140 µg/mL (≈ 279 µM) | pH final of solubility test ([1]; pH 2): 1.96 | pH final of solubility test ([1]; pH 4.5): 4.56 | Solubility ([1]; pH 4.5, aqueous buffer, thermodynamic from solid, pH 4.5, read-out: Solubility): 2 µg/mL (≈ 3.98 µM) | pH final of solubility test ([1]; pH 7.4): 7.33 | Solubility ([1]; pH 7.4, aqueous buffer, thermodynamic from solid, pH 7.4, read-out: Solubility): 1 µg/mL (≈ 1.99 µM) | Solubility at 25° C. ([2]; FaSSIF): 1.4 µg/mL (≈ 2.79 µM) | pH final of solubility test ([2]; FaSSIF): 6.91 | pH final of solubility test ([2]; FeSSIF): 6.08 | Solubility ([2]; FeSSIF, 25 °C, thermodynamic from solid): 137 µg/mL (≈ 273 µM) | Solubility at 25° C. ([2]; SGF): 2.1 µg/mL (≈ 4.18 µM) | pH final of solubility test ([2]; SGF): 2.02 | Bulk stability (degradation) [3]: week), slight | Light stability (1.2 MLux h) [4]: Slight degradation | Hygroscopicity [5]: Low | Polymorphism (Polymorphism (Table 1A)): Yes | Stability in aqueous solutions ([6]; pH 1.2 and pH 10.0): Significant degradation | Stability in aqueous solutions ([6]; pH 2.9 to 6.8): Relatively stable at pH

Cc1ccc(NC(=O)c2ccnc(C(F)(F)F)c2)cc1-c1cc(OCCO)nc(N2CCOCC2)c1 [Compound A (hydrate), N-(3-(2-(2-hydroxyethoxy)-6-morpholinopyridin-4-yl)-4-methylphenyl)-2-(trifluoromethyl)isonicotinamide]
Solubility ([1]; FaSSIF V2): 4 µg/mL | pH final of solubility test ([1]; FaSSIF V2): 6.44 | Solubility ([1]; FeSSIF V2): 47 µg/mL | pH final of solubility test ([1]; FeSSIF V2): 5.6 | Solubility ([1]; SGF pH 2.0): 25 µg/mL | pH final of solubility test ([1]; SGF pH 2.0): 2.19 | Solubility ([1]; Water): 1 µg/mL | pH final of solubility test ([1]; Water): 5.99 | Solubility ([1]; pH 1): 170 µg/mL | pH final of solubility test ([1]; pH 1): 1.23 | Solubility ([1]; pH 4.5): 1 µg/mL | pH final of solubility test ([1]; pH 4.5): 4.0 | Solubility ([1]; pH 7.0): 0.8 µg/mL | pH final of solubility test ([1]; pH 7.0): 7.0 | Appearance/XRPD/DSC ([7]; Bulk): No change | Degradation Products [%] (HPLC) ([7]; Bulk): <1.0% | Degradation Products [%] (HPLC) ([7]; Ethanol): 18%

Cc1ccc(NC(=O)c2ccnc(C(F)(F)F)c2)cc1-c1cc(OCCO)nc(N2CCOCC2)c1 [Compound A (tartrate salt), N-(3-(2-(2-hydroxyethoxy)-6-morpholinopyridin-4-yl)-4-methylphenyl)-2-(trifluoromethyl)isonicotinamide]
Solubility at 25° C. ([2]; FaSSIF): 0.6 µg/mL | pH final of solubility test ([2]; FaSSIF): 3.54 | Solubility at 25° C. ([2]; FeSSIF): 109.2 µg/mL | pH final of solubility test ([2]; FeSSIF): 4.93 | Solubility at 25° C. ([2]; SGF): 53.5 µg/mL | pH final of solubility test ([2]; SGF): 1.89 | Bulk stability (degradation) [3]: week), significant | Light stability (1.2 MLux h) [4]: Significant degradation | Hygroscopicity [5]: High | Polymorphism (Polymorphism (Table 1A)): Potential issue | Stability in aqueous solutions ([6]; pH 1.2 and pH 10.0): Significant degradation | Stability in aqueous solutions ([6]; pH 2.9 to 6.8): Relatively stable at pH

Cc1ccc(NC(=O)c2ccnc(C(F)(F)F)c2)cc1-c1cc(OCCO)nc(N2CCOCC2)c1 [Compound A (tosylate salt), N-(3-(2-(2-hydroxyethoxy)-6-morpholinopyridin-4-yl)-4-methylphenyl)-2-(trifluoromethyl)isonicotinamide]
Solubility ([1]; FaSSIF V2): 16 µg/mL | pH final of solubility test ([1]; FaSSIF V2): 6.07 | Solubility ([1]; FeSSIF V2): 51 µg/mL | pH final of solubility test ([1]; FeSSIF V2): 5.41 | Solubility ([1]; SGF pH 2.0): 29 µg/mL | pH final of solubility test ([1]; SGF pH 2.0): 2.02 | Solubility ([1]; Water): 5140 µg/mL | pH final of solubility test ([1]; Water): 2.71 | Solubility ([1]; pH 1): 106 µg/mL | pH final of solubility test ([1]; pH 1): 1.23 | Solubility ([1]; pH 4.5): 2 µg/mL | pH final of solubility test ([1]; pH 4.5): 3.85 | Solubility ([1]; pH 7.0): 2 µg/mL | pH final of solubility test ([1]; pH 7.0): 6.83 | Appearance/XRPD/DSC ([7]; Bulk): No change | Degradation Products [%] (HPLC) ([7]; Bulk): <1.0% | Degradation Products [%] (HPLC) ([7]; Ethanol): 97% | Parent remaining [%] (HPLC) ([8]; pH 1, 50 ° C.): 23% | Parent remaining [%] (HPLC) ([8]; pH 1, 80 ° C.): 0.2% | Parent remaining [%] (HPLC) ([8]; pH 1, RT): 97% | Parent remaining [%] (HPLC) ([8]; pH 4.5, 50 ° C.): >99% | Parent remaining [%] (HPLC) ([8]; pH 4.5, 80 ° C.): 98.6% | Parent remaining [%] (HPLC) ([8]; pH 4.5, RT): >99% | Parent remaining [%] (HPLC) ([8]; pH 7.4, 50 ° C.): 97% | Parent remaining [%] (HPLC) ([8]; pH 7.4, 80 ° C.): 74% | Parent remaining [%] (HPLC) ([8]; pH 7.4, RT): >99% | Solubility at 25° C. ([2]; FaSSIF): 1.1 µg/mL | pH final of solubility test ([2]; FaSSIF): 6.66 | Solubility at 25° C. ([2]; FeSSIF): 115.8 µg/mL | pH final of solubility test ([2]; FeSSIF): 5.58 | Solubility at 25° C. ([2]; SGF): 10 µg/mL | pH final of solubility test ([2]; SGF): 1.75 | Bulk stability (degradation) [3]: 75% RH (1 week), no | Bulk stability (physical) [3]: Physically unstable at 80° C./ | Light stability (1.2 MLux h) [4]: No degradation | Appearance/XRPD/DSC ([9]; 50 ° C.): No change | Parent remaining [%] (HPLC) ([9]; 50 ° C.): >99% | Appearance/XRPD/DSC ([9]; 80 ° C.): No change | Parent remaining [%] (HPLC) ([9]; 80 ° C.): >99% | Appearance/XRPD/DSC ([9]; RT): No change | Parent remaining [%] (HPLC) ([9]; RT): >99% | Hygroscopicity [5]: Low | Polymorphism (Polymorphism (Table 1A)): No issue encountered
